Measurements published in PubChem BioAssay (NCI).
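Protocol summary: plate cells (96-well), add compound at 5 concentrations, incubate 48 h, interpolate endpoints linearly. GI50 marks 50% less growth. TGI: concentration producing complete growth inhibition.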

Experiments:
Assay in all cases: growth of human tumour cells (NCI), 48 h; in the data active means GI50 below about 0.43 µM; inactive means the rest
[1] = system: HOP-92 NSCLC
[2] = system: SN12C renal
[3] = system: CAKI-1 renal
[4] = system: HS 578T breast
[5] = system: ACHN renal
[6] = system: UACC-257 melanoma
[7] = system: OVCAR-8 ovarian
[8] = system: BT-549 breast
[9] = system: HOP-62 NSCLC
[10] = system: SW-620 colon
[11] = system: NCI-H226 lung
[12] = system: OVCAR-5 ovarian
[13] = system: U251 CNS
[14] = system: OVCAR-4 ovarian
[15] = system: TK-10 renal
[16] = system: NCI-H522 lung
[17] = system: SNB-19 CNS
[18] = system: HCT-116 colon
[19] = system: SK-MEL-5 melanoma
[20] = system: COLO 205 colon
[21] = system: K-562 leukemia
[22] = system: MALME-3M melanoma
[23] = system: SK-MEL-2 melanoma
[24] = system: SNB-75 CNS
[25] = system: KM12 colon
[26] = system: A549 NSCLC
[27] = system: MDA-MB-231 breast
[28] = system: IGROV1 ovarian
[29] = system: MDA-MB-435
[30] = system: UO-31 renal
[31] = system: HCC-2998 colon
[32] = system: CCRF-CEM leukemia
[33] = system: EKVX NSCLC
[34] = system: T-47D breast
[35] = system: RPMI-8226 leukemia
[36] = system: NCI/ADR-RES ovarian
[37] = system: M14 melanoma
[38] = system: UACC-62 melanoma
[39] = system: MOLT-4 leukemia
[40] = system: A498 renal
[41] = system: PC-3 prostate
[42] = system: OVCAR-3 ovarian
[43] = system: RXF 393 renal
[44] = system: NCI-H460 lung
[45] = system: LOX IMVI melanoma
[46] = system: HL-60(TB) leukemia
[47] = system: 786-0 renal
[48] = system: MCF7 breast
[49] = system: NCI-H23 lung
[50] = system: HT29 colon
[51] = system: DU-145 prostate
[52] = system: SF-539 CNS
[53] = system: SF-295 CNS
[54] = system: SK-OV-3 ovarian
[55] = system: SF-268 CNS
[56] = system: SK-MEL-28 melanoma
[57] = system: HCT-15 colon

O=C(CCCBr)Nc1ccccc1C#C/C=C\C#Cc1ccccc1C(F)(F)F
28.4 µM: TGI [43]
43.7 µM: TGI [18]
29.9 µM: TGI [2]
inactive: GI50 [1] 19.7 µM | GI50 [2] 10.6 µM | GI50 [3] 15.3 µM | GI50 [4] 36.5 µM | GI50 [5] 26.8 µM | GI50 [6] 19.1 µM | GI50 [7] 24.2 µM | GI50 [8] 19.8 µM | GI50 [9] 4.76 µM | GI50 [10] 22.5 µM | GI50 [11] 13.9 µM | GI50 [12] > 50 µM | GI50 [13] 11.3 µM | GI50 [14] 10.1 µM | GI50 [15] 38.8 µM | GI50 [16] 15.5 µM | GI50 [17] > 50 µM | GI50 [18] 10.9 µM | GI50 [19] 38.3 µM | GI50 [20] > 50 µM | GI50 [21] 21.6 µM | GI50 [22] 18.7 µM | GI50 [23] 27.8 µM | GI50 [24] 9.07 µM | GI50 [25] 17.4 µM | GI50 [26] 19.3 µM | GI50 [27] 12.8 µM | GI50 [28] 6.75 µM | GI50 [29] 13.5 µM | GI50 [30] 20.2 µM | GI50 [31] 7.25 µM | GI50 [32] 15 µM | GI50 [33] 39.1 µM | GI50 [34] > 50 µM | GI50 [35] 14.2 µM | GI50 [36] 11.9 µM | GI50 [37] 12.1 µM | GI50 [38] 14.1 µM | GI50 [39] 16.3 µM | GI50 [40] 15.8 µM | GI50 [41] 23.1 µM | GI50 [42] 13.3 µM | GI50 [43] 8.35 µM | GI50 [44] 19.2 µM | GI50 [45] 22.6 µM | GI50 [46] 16.1 µM | GI50 [47] 13.5 µM | GI50 [48] 26.6 µM | GI50 [49] 16.2 µM | GI50 [50] 8.56 µM | GI50 [51] > 50 µM | GI50 [52] 21.2 µM | GI50 [53] 27.6 µM | GI50 [54] > 50 µM | GI50 [55] 35.3 µM | GI50 [56] 10.3 µM | GI50 [57] 20.6 µM
29.5 µM: TGI [37]
33.4 µM: TGI [27]
20.6 µM: TGI [9]
47.3 µM: TGI [40]
20.8 µM: TGI [50]
26.9 µM: TGI [28]
20.3 µM: TGI [31]
48.9 µM: TGI [42]
> 50 µM: TGI [1] | TGI [3] | TGI [4] | TGI [5] | TGI [6] | TGI [7] | TGI [8] | TGI [10] | TGI [12] | TGI [15] | TGI [16] | TGI [17] | TGI [19] | TGI [20] | TGI [21] | TGI [22] | TGI [23] | TGI [25] | TGI [26] | TGI [30] | TGI [33] | TGI [34] | TGI [35] | TGI [38] | TGI [39] | TGI [41] | TGI [44] | TGI [45] | TGI [47] | TGI [48] | TGI [49] | TGI [51] | TGI [52] | TGI [53] | TGI [54] | TGI [55] | TGI [57]
25.7 µM: TGI [56]
40.6 µM: TGI [24]
31.1 µM: TGI [13]
44.8 µM: TGI [11]
29.2 µM: TGI [36]
32.6 µM: TGI [29]
45 µM: TGI [46]
35.7 µM: TGI [32]
31.9 µM: TGI [14]
